Assay results as given in publication PMC6349869, “The palladacycle complex AJ-5 induces apoptotic cell death while reducing autophagic flux in rhabdomyosarcoma cells” (Cell Death Discovery, 2019).

Assays:
[1] = system: RMS cell lines including RD and RH30 cells; set-up: method as in PMID 10917549, PMID 11742497; conditions: after 4–5 days of treatment, range of RMS cell lines including RD and RH30; cited from earlier work
RH30 and RD cells = experiment: IC50 of doxorubicin established in the cell lines tested; type: cell-based; conditions: Homo sapiens

Row | IC50 (RH30 and RD cells) | SMILES | IC50 [1]
1 |  | N.N.[Cl][Pt][Cl] [Cisplatin, cisplatin] | > 500 nM
2 | 500 nM | COc1cccc2c1C(=O)c1c(O)c3c(c(O)c1C2=O)C[C@@](O)(C(=O)CO)C[C@@H]3O[C@H]1C[C@H](N)[C@H](O)[C@H](C)O1 [Doxorubicin, doxorubicin] | 
